Results taken from PubChem BioAssay (NCI).
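Where inhibition never reached the appropriate level, the endpoint shown equals the highest concentration tested. Otherwise, values were interpolated linearly from a five-concentration, 48-hour dose response in 96-well plates. TGI is the concentration that stops growth completely.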

Legend:
Assay in all cases: NCI anticancer screen, dose series, 48 h
SNB-75 CNS = test system: SNB-75 CNS
SF-295 CNS = test system: SF-295 CNS
COLO 205 colon = test system: COLO 205 colon
HS 578T breast = test system: HS 578T breast
SN12C renal = test system: SN12C renal
SK-MEL-28 melanoma = test system: SK-MEL-28 melanoma
UO-31 renal = test system: UO-31 renal
NCI-H23 lung = test system: NCI-H23 lung
NCI-H226 lung = test system: NCI-H226 lung
OVCAR-5 ovarian = test system: OVCAR-5 ovarian
NCI-H460 lung = test system: NCI-H460 lung
HCT-15 colon = test system: HCT-15 colon
SK-OV-3 ovarian = test system: SK-OV-3 ovarian
BT-549 breast = test system: BT-549 breast
NCI/ADR-RES ovarian = test system: NCI/ADR-RES ovarian
UACC-62 melanoma = test system: UACC-62 melanoma
T-47D breast = test system: T-47D breast
EKVX NSCLC = test system: EKVX NSCLC
RXF 393 renal = test system: RXF 393 renal
IGROV1 ovarian = test system: IGROV1 ovarian
MCF7 breast = test system: MCF7 breast
SR leukemia = test system: SR leukemia
HOP-92 NSCLC = test system: HOP-92 NSCLC
SF-268 CNS = test system: SF-268 CNS
U251 CNS = test system: U251 CNS
MALME-3M melanoma = test system: MALME-3M melanoma
K-562 leukemia = test system: K-562 leukemia
LOX IMVI melanoma = test system: LOX IMVI melanoma
SNB-19 CNS = test system: SNB-19 CNS
PC-3 prostate = test system: PC-3 prostate
SW-620 colon = test system: SW-620 colon
OVCAR-8 ovarian = test system: OVCAR-8 ovarian
MDA-MB-435 = test system: MDA-MB-435
HL-60(TB) leukemia = test system: HL-60(TB) leukemia
SF-539 CNS = test system: SF-539 CNS
OVCAR-4 ovarian = test system: OVCAR-4 ovarian
MDA-MB-231 breast = test system: MDA-MB-231 breast
M14 melanoma = test system: M14 melanoma
HT29 colon = test system: HT29 colon
HCC-2998 colon = test system: HCC-2998 colon
SK-MEL-2 melanoma = test system: SK-MEL-2 melanoma
SK-MEL-5 melanoma = test system: SK-MEL-5 melanoma
A549 NSCLC = test system: A549 NSCLC
786-0 renal = test system: 786-0 renal
ACHN renal = test system: ACHN renal
HOP-62 NSCLC = test system: HOP-62 NSCLC
A498 renal = test system: A498 renal
MDA-N = test system: MDA-N
TK-10 renal = test system: TK-10 renal
CAKI-1 renal = test system: CAKI-1 renal
RPMI-8226 leukemia = test system: RPMI-8226 leukemia
OVCAR-3 ovarian = test system: OVCAR-3 ovarian
DU-145 prostate = test system: DU-145 prostate
KM12 colon = test system: KM12 colon
UACC-257 melanoma = test system: UACC-257 melanoma
NCI-H522 lung = test system: NCI-H522 lung
HCT-116 colon = test system: HCT-116 colon
MOLT-4 leukemia = test system: MOLT-4 leukemia
CCRF-CEM leukemia = test system: CCRF-CEM leukemia

COC(=O)C(=O)Nc1cc2c3c(c1)Oc1cccc4c1C3(C)c1c(cccc1O2)O4
TGI (SNB-75 CNS): > 100 µM
TGI (SF-295 CNS): > 100 µM
TGI (COLO 205 colon): > 31.6 µM
TGI (HS 578T breast): > 100 µM
TGI (SN12C renal): > 100 µM
TGI (SK-MEL-28 melanoma): > 100 µM
TGI (UO-31 renal): > 100 µM
TGI (NCI-H23 lung): > 100 µM
TGI (NCI-H226 lung): 44.8 µM
TGI (OVCAR-5 ovarian): > 100 µM
TGI (NCI-H460 lung): > 100 µM
TGI (HCT-15 colon): > 100 µM
TGI (SK-OV-3 ovarian): > 100 µM
TGI (BT-549 breast): > 100 µM
TGI (NCI/ADR-RES ovarian): > 100 µM
TGI (UACC-62 melanoma): > 100 µM
TGI (T-47D breast): > 100 µM
TGI (EKVX NSCLC): > 100 µM
TGI (RXF 393 renal): 56.9 µM
TGI (IGROV1 ovarian): > 100 µM
TGI (MCF7 breast): > 100 µM
TGI (SR leukemia): > 100 µM
TGI (HOP-92 NSCLC): > 100 µM
TGI (SF-268 CNS): > 100 µM
TGI (U251 CNS): > 100 µM
TGI (MALME-3M melanoma): > 100 µM
TGI (K-562 leukemia): > 100 µM
TGI (LOX IMVI melanoma): > 100 µM
TGI (SNB-19 CNS): > 100 µM
TGI (PC-3 prostate): > 100 µM
TGI (SW-620 colon): > 100 µM
TGI (OVCAR-8 ovarian): > 100 µM
TGI (MDA-MB-435): > 100 µM
TGI (HL-60(TB) leukemia): 14.2 µM
TGI (SF-539 CNS): > 76.6 µM
TGI (OVCAR-4 ovarian): > 100 µM
TGI (MDA-MB-231 breast): > 100 µM
TGI (M14 melanoma): > 100 µM
TGI (HT29 colon): > 40.6 µM
TGI (HCC-2998 colon): > 100 µM
TGI (SK-MEL-2 melanoma): > 100 µM
TGI (SK-MEL-5 melanoma): > 100 µM
TGI (A549 NSCLC): > 100 µM
TGI (786-0 renal): > 79.7 µM
TGI (ACHN renal): > 100 µM
TGI (HOP-62 NSCLC): > 100 µM
TGI (A498 renal): > 100 µM
TGI (MDA-N): > 100 µM
TGI (TK-10 renal): > 100 µM
TGI (CAKI-1 renal): > 100 µM
TGI (RPMI-8226 leukemia): > 100 µM
TGI (OVCAR-3 ovarian): > 100 µM
TGI (DU-145 prostate): > 66.3 µM
TGI (KM12 colon): > 100 µM
TGI (UACC-257 melanoma): > 100 µM
TGI (NCI-H522 lung): > 100 µM
TGI (HCT-116 colon): > 100 µM
TGI (MOLT-4 leukemia): > 100 µM
TGI (CCRF-CEM leukemia): 8.7 µM

O=CNc1ccccc1OCCOc1ccccc1NC=O
TGI (SNB-75 CNS): > 100 µM
TGI (SF-295 CNS): > 100 µM
TGI (COLO 205 colon): > 100 µM
TGI (HS 578T breast): > 100 µM
TGI (SN12C renal): > 100 µM
TGI (SK-MEL-28 melanoma): > 100 µM
TGI (UO-31 renal): > 100 µM
TGI (NCI-H23 lung): > 100 µM
TGI (NCI-H226 lung): > 100 µM
TGI (OVCAR-5 ovarian): > 100 µM
TGI (NCI-H460 lung): > 100 µM
TGI (HCT-15 colon): > 100 µM
TGI (SK-OV-3 ovarian): > 100 µM
TGI (BT-549 breast): > 100 µM
TGI (NCI/ADR-RES ovarian): > 100 µM
TGI (UACC-62 melanoma): > 100 µM
TGI (T-47D breast): > 100 µM
TGI (EKVX NSCLC): > 100 µM
TGI (RXF 393 renal): > 100 µM
TGI (IGROV1 ovarian): > 100 µM
TGI (MCF7 breast): > 100 µM
TGI (SR leukemia): > 100 µM
TGI (HOP-92 NSCLC): > 100 µM
TGI (SF-268 CNS): > 100 µM
TGI (U251 CNS): > 100 µM
TGI (MALME-3M melanoma): > 100 µM
TGI (K-562 leukemia): > 100 µM
TGI (LOX IMVI melanoma): > 100 µM
TGI (SNB-19 CNS): > 100 µM
TGI (PC-3 prostate): > 100 µM
TGI (SW-620 colon): > 100 µM
TGI (OVCAR-8 ovarian): > 100 µM
TGI (MDA-MB-435): > 100 µM
TGI (HL-60(TB) leukemia): > 100 µM
TGI (SF-539 CNS): > 100 µM
TGI (OVCAR-4 ovarian): > 100 µM
TGI (MDA-MB-231 breast): > 100 µM
TGI (M14 melanoma): > 100 µM
TGI (HT29 colon): > 100 µM
TGI (HCC-2998 colon): > 100 µM
TGI (SK-MEL-2 melanoma): > 100 µM
TGI (SK-MEL-5 melanoma): > 100 µM
TGI (A549 NSCLC): > 100 µM
TGI (786-0 renal): > 100 µM
TGI (ACHN renal): > 100 µM
TGI (HOP-62 NSCLC): > 100 µM
TGI (A498 renal): > 100 µM
TGI (MDA-N): > 100 µM
TGI (TK-10 renal): > 100 µM
TGI (CAKI-1 renal): > 100 µM
TGI (RPMI-8226 leukemia): > 100 µM
TGI (OVCAR-3 ovarian): > 100 µM
TGI (DU-145 prostate): > 100 µM
TGI (KM12 colon): > 100 µM
TGI (UACC-257 melanoma): > 100 µM
TGI (NCI-H522 lung): > 100 µM
TGI (HCT-116 colon): > 100 µM
TGI (MOLT-4 leukemia): > 100 µM
TGI (CCRF-CEM leukemia): > 100 µM

COC(=O)c1c(O)ccc2c1c1c(n2Cc2cc(OC)cc(OC)c2)C(=O)c2ccccc2C1=O
TGI (SNB-75 CNS): 58.7 µM
TGI (SF-295 CNS): 32.7 µM
TGI (COLO 205 colon): 3.28 µM
TGI (HS 578T breast): 45.9 µM
TGI (SN12C renal): 24.2 µM
TGI (SK-MEL-28 melanoma): 33 µM
TGI (UO-31 renal): 40.5 µM
TGI (NCI-H23 lung): 27 µM
TGI (NCI-H226 lung): 39.3 µM
TGI (OVCAR-5 ovarian): 55.9 µM
TGI (NCI-H460 lung): 19 µM
TGI (HCT-15 colon): 21.1 µM
TGI (SK-OV-3 ovarian): 37.5 µM
TGI (BT-549 breast): 29 µM
TGI (NCI/ADR-RES ovarian): 21.8 µM
TGI (T-47D breast): 50.5 µM
TGI (EKVX NSCLC): 51.5 µM
TGI (RXF 393 renal): 45.6 µM
TGI (IGROV1 ovarian): 22 µM
TGI (MCF7 breast): 45.3 µM
TGI (SR leukemia): > 100 µM
TGI (HOP-92 NSCLC): 24.6 µM
TGI (SF-268 CNS): 41.2 µM
TGI (U251 CNS): 28.2 µM
TGI (MALME-3M melanoma): 22.4 µM
TGI (K-562 leukemia): > 100 µM
TGI (LOX IMVI melanoma): 63.5 µM
TGI (SNB-19 CNS): > 100 µM
TGI (PC-3 prostate): 19.3 µM
TGI (SW-620 colon): > 100 µM
TGI (OVCAR-8 ovarian): 90.3 µM
TGI (MDA-MB-435): 12.9 µM
TGI (HL-60(TB) leukemia): 39.4 µM
TGI (SF-539 CNS): 25.9 µM
TGI (OVCAR-4 ovarian): 50.7 µM
TGI (MDA-MB-231 breast): 35.7 µM
TGI (M14 melanoma): 26.2 µM
TGI (HT29 colon): 5.42 µM
TGI (HCC-2998 colon): 5.73 µM
TGI (SK-MEL-2 melanoma): 27.2 µM
TGI (SK-MEL-5 melanoma): 26.7 µM
TGI (A549 NSCLC): 31.3 µM
TGI (786-0 renal): 21.4 µM
TGI (ACHN renal): 56.1 µM
TGI (HOP-62 NSCLC): 23 µM
TGI (A498 renal): > 100 µM
TGI (MDA-N): 34.3 µM
TGI (TK-10 renal): 41.1 µM
TGI (CAKI-1 renal): 56.7 µM
TGI (RPMI-8226 leukemia): 9.98 µM
TGI (OVCAR-3 ovarian): 25 µM
TGI (DU-145 prostate): 71.9 µM
TGI (KM12 colon): 13.6 µM
TGI (UACC-257 melanoma): > 100 µM
TGI (NCI-H522 lung): 20.9 µM
TGI (HCT-116 colon): 15.1 µM
TGI (MOLT-4 leukemia): 73.3 µM
TGI (CCRF-CEM leukemia): 78.6 µM
